From patent publication US20220064141A1, “BENZOPYRIDONE HETEROCYCLIC COMPOUND AND USE THEREOF” (BrightGene Bio-Medical Technology Co., Ltd., priority 2019, published 2022)

Test system: NCI-H358 human non-small cell lung cancer cell with KRAS G12C mutation
Assay: Cell Titer-Glo cell viability, NCI-H358 cells (72 h)
Assay type: cell-based
Text: Effect Example 1: Pharmacodynamic Assay 1 (Determination of the efficacy of the compounds of the present disclosure on NCI-H358 human non-small cell lung cancer cell with KRAS G12C mutation)
The following method was used to determine the effect of the compounds of the present disclosure on tumor cell proliferation.
For the KRAS G12C subtype, NCI-H358 non-small cell lung cancer cells with KRAS G12C mutation were used to determine the efficacy of the compounds in inhibiting cancer cell viability. NCI-H358 cells were cultured in a DMEM medium containing 10% fetal bovine serum, 100 U penicillin and […] streptomycin. The cells were cultured in an incubator with 5% CO2 at 37° C. Cancer cell viability was evaluated by determining the content of ATP with Cell Titer-Glo® kit (Luminescent Cell Viability Assay kit, please refer to the manufacturer's instructions for use) and evaluating the inhibition of cell growth.
The experimental method was proceeded in accordance with the steps in the instructions for the kit, and was described briefly as follows. The test compounds were first dissolved in DMSO to prepare stock solutions, and then the stock solutions were subjected to gradient dilution with the culture media of the corresponding cells, thereby preparing test samples. The final concentrations of the compounds were in the range of 30 μM to 0.01 nM. Tumor cells in logarithmic growth phase were seeded into a 96-well cell culture plate at an appropriate density. After the cell culture plate was left overnight in an incubator with 5% CO2 at 37° C., the test compound samples were added thereto and then the cells were further cultured for 72 hours. After the incubation was complete, an appropriate volume of Cell Titer-Glo® reagent was added into each well, and the cells were incubated at 37° C. for 1 to 4 hours. Then, the […] was read on a microplate reader.

[1] = Homo sapiens, NCI-H358, 72 h, class symbols

IC50 [1]	SMILES	further results
100 to 1000 nM	C=CC(=O)N1CCN(c2c(C#N)c(=O)n(-c3ccccc3C(C)C)c3cc(-c4ccc(C#N)cc4C)c(Cl)cc23)[C@@H](C)C1 [Compound I-50]	
100 to 1000 nM	C=CC(=O)N1CCN(c2c(C#N)c(=O)n(-c3ccccc3C(C)C)c3cc(-c4cn[nH]c4)c(Cl)cc23)[C@@H](C)C1 [Compound I-54]	
	C=CC(=O)N1CC2(CCN(c3c(C#N)c(=O)n(-c4ccccc4C(C)C)c4cc(-c5c(C)ccc6[nH]ncc56)c(Cl)cc34)CC2)C1 (single isomer, unassigned) [Compound I-5-2]	IC50 (class symbols): 100 to 1000 nM
	C=C(F)C(=O)N1CCN(c2c(C#N)c(=O)n(-c3ccccc3C(C)C)c3cc(-c4c(C)ccc5[nH]ncc45)c(Cl)cc23)[C@@H](C)C1 (single isomer, unassigned) [Compound I-6-1]	IC50 (class symbols): > 1000 nM
> 1000 nM	C=CC(=O)N1CCN(c2c(C#N)c(=O)n(-c3ccccc3C(C)C)c3cc(-c4ccc(C(F)(F)F)nc4)c(Cl)cc23)[C@@H](C)C1 [Compound I-40]	
100 to 1000 nM	C=CC(=O)N1CCN(c2c(C#N)c(=O)n(-c3ccccc3C(C)C)c3cc(-c4cc(C)cc(C)c4N)c(Cl)cc23)[C@@H](C)C1 [Compound I-81]	
< 100 nM	C=CC(=O)N1CCN(c2c(C#N)c(=O)n(-c3c(C(C)C)ncnc3C(C)C)c3cc(-c4c(OC)ccc(Cl)c4F)c(Cl)cc23)[C@@H](C)C1 [Compound I-87-1]	
100 to 1000 nM	C=CC(=O)N1CCN(c2c(C#N)c(=O)n(-c3ccccc3C(C)C)c3cc(-c4cccc5ccoc45)c(Cl)cc23)[C@@H](C)C1 [Compound I-55]	
100 to 1000 nM	C=CC(=O)N1CCN(c2c(C#N)c(=O)n(-c3ccccc3C(C)C)c3cc(-c4c(C)cnn4C)c(Cl)cc23)[C@@H](C)C1 [Compound I-21]	
< 100 nM	C=CC(=O)N1CCN(c2c(C#N)c(=O)n(-c3ccccc3C(C)C)c3cc(-c4cc(Cl)ccc4N)c(Cl)cc23)[C@@H](C)C1 [Compound I-43]	
< 100 nM	C=CC(=O)N1CCN(c2c(C#N)c(=O)n(-c3c(C)ccnc3C(C)C)c3cc(-c4c(C)ccc5[nH]ncc45)c(Cl)cc23)[C@@H](C)C1 [Compound I-83-1]	
> 1000 nM	C=CC(=O)N1CCN(c2c(C#N)c(=O)n(-c3ccccc3C(C)C)c3cc(-c4ccc(Cl)cc4)c(Cl)cc23)[C@@H](C)C1 [Compound I-11]	
	C=CC(=O)N1CCN(c2c(C#N)c(=O)n(-c3ccccc3C(C)C)c3cc(-c4c(OC)ccc(Cl)c4F)c(Cl)cc23)[C@@H](C)C1 (single isomer, unassigned) [Compound I-7-2]	IC50 (class symbols): 100 to 1000 nM
100 to 1000 nM	C=CC(=O)N1CCN(c2c(C#N)c(=O)n(-c3ccccc3Cl)c3cc(-c4c(OC)ccc(Cl)c4F)c(Cl)cc23)[C@@H](C)C1 [Compound I-85-1]	
> 1000 nM	C=CC(=O)N1CCN(c2c(C#N)c(=O)n(-c3ccccc3C(C)C)c3cc(-c4ccc5[nH]ncc5c4)c(Cl)cc23)[C@@H](C)C1 [Compound I-74]	
< 100 nM	C=CC(=O)N1CCN(c2c(C#N)c(=O)n(-c3ccccc3C(C)C)c3cc(-c4ccc(F)c5ccccc45)c(Cl)cc23)[C@@H](C)C1 [Compound I-22]	
	C=CC(=O)N1CCN(c2c(C#N)c(=O)n(-c3c(C(C)C)ncnc3C(C)C)c3cc(-c4c(OC)ccc(Cl)c4F)c(Cl)cc23)[C@@H](C)C1 [Compound I-87-2]	IC50 (class symbols): 100 to 1000 nM
100 to 1000 nM	C=CC(=O)N1CCN(c2c(C#N)c(=O)n(-c3ccccc3C(C)C)c3cc(-c4c(N)cccc4F)c(Cl)cc23)[C@@H](C)C1 [Compound I-9]	
< 100 nM	C=CC(=O)N1CCN(c2c(C#N)c(=O)n(-c3ccccc3C(C)C)c3cc(-c4cc(F)ccc4O)c(Cl)cc23)[C@@H](C)C1 [Compound I-70]	
< 100 nM	C=CC(=O)N1CCN(c2c(C#N)c(=O)n(-c3ccccc3C(C)C)c3cc(-c4ccc(Cl)c5ccccc45)c(Cl)cc23)[C@@H](C)C1 [Compound I-24]	
100 to 1000 nM	C=CC(=O)N1CCN(c2c(C#N)c(=O)n(-c3ccccc3C(C)C)c3cc(-c4ccc(Cl)cc4Cl)c(Cl)cc23)[C@@H](C)C1 [Compound I-38]	
	C=CC(=O)N1CCN(c2c(C#N)c(=O)n(-c3ccccc3C(C)C)c3cc(-c4c(OC)ccc(Cl)c4F)c(Cl)cc23)[C@@H](C)C1 (single isomer, unassigned) [Compound I-7-1]	IC50 (class symbols): > 1000 nM
	C=CC(=O)N1CCN(c2c(C#N)c(=O)n(-c3ccccc3C(C)C)c3cc(-c4ccc(F)cc4O)c(Cl)cc23)[C@@H](C)C1 [Compound I-72]	IC50 (class symbols): < 100 nM
	C=CC(=O)N1C[C@H](C)N(c2c(C#N)c(=O)n(-c3ccccc3C(C)C)c3cc(-c4c(C)ccc5[nH]ncc45)c(Cl)cc23)C[C@H]1C (single isomer, unassigned) [Compound I-4-1]	IC50 (class symbols): > 1000 nM

IC50 [1]	SMILES	further results
100 to 1000 nM	C=CC(=O)N1CCN(c2c(C#N)c(=O)n(-c3ccccc3C(C)C)c3cc(-c4ccc5c(c4)CC5)c(Cl)cc23)[C@@H](C)C1 [Compound I-47]	
100 to 1000 nM	C=CC(=O)N1CCN(c2c(C#N)c(=O)n(-c3ccccc3C(C)C)c3cc(-c4ccc(F)cc4)c(Cl)cc23)[C@@H](C)C1 [Compound I-15]	
< 100 nM	C=CC(=O)N1CCN(c2c(C#N)c(=O)n(-c3ccccc3C(C)C)c3cc(-c4cc(Cl)cc(C)c4N)c(Cl)cc23)[C@@H](C)C1 [Compound I-76]	
	C=C(F)C(=O)N1CCN(c2c(C#N)c(=O)n(-c3ccccc3C(C)C)c3cc(-c4c(C)ccc5[nH]ncc45)c(Cl)cc23)[C@@H](C)C1 (single isomer, unassigned) [Compound I-6-2]	IC50 (class symbols): < 100 nM
< 100 nM	C=CC(=O)N1CCN(c2c(C#N)c(=O)n(-c3ccccc3C(C)C)c3cc(-c4ccc(Cl)cc4N)c(Cl)cc23)[C@@H](C)C1 [Compound I-57]	
100 to 1000 nM	C=CC(=O)N1CCN(c2c(C#N)c(=O)n(-c3ccccc3C(C)C)c3cc(-c4cccc(N)n4)c(Cl)cc23)[C@@H](C)C1 [Compound I-41]	
	C=CC(=O)N1CCN(c2c(C#N)c(=O)n(-c3c(C(C)C)ncnc3C(C)C)c3cc(-c4c(C)ccc5[nH]ncc45)c(Cl)cc23)[C@@H](C)C1 [Compound I-86-2]	IC50 (class symbols): 100 to 1000 nM
100 to 1000 nM	C=CC(=O)N1CCN(c2c(C#N)c(=O)n(-c3ccccc3C(C)C)c3cc(-c4cccc5c4oc4ccccc45)c(Cl)cc23)[C@@H](C)C1 [Compound I-20]	
100 to 1000 nM	C=CC(=O)N1CCN(c2c(C#N)c(=O)n(-c3ccccc3C(C)C)c3cc(-c4coc5ccccc45)c(Cl)cc23)[C@@H](C)C1 [Compound I-51]	
> 1000 nM	C=CC(=O)N1CCN(c2c(C#N)c(=O)n(-c3ccccc3C(C)C)c3cc(-c4ccccc4C#N)c(Cl)cc23)[C@@H](C)C1 [Compound I-19]	
> 1000 nM	C=CC(=O)N1CCN(c2c(C#N)c(=O)n(-c3ccccc3C(C)C)c3cc(-c4ccccc4C(F)(F)F)c(Cl)cc23)[C@@H](C)C1 [Compound I-46]	
	C=CC(=O)N1CCN(c2c(C#N)c(=O)n(-c3ccccc3C(C)C)c3cc(-c4c(C)ccc5[nH]ncc45)c(Cl)cc23)[C@H](C)C1 (single isomer, unassigned) [Compound I-3-2]	IC50 (numeric values): 250 nM
> 1000 nM	C=CC(=O)N1CCN(c2c(C#N)c(=O)n(-c3ccccc3C(C)C)c3cc(-c4cnc(OC)cc4C)c(Cl)cc23)[C@@H](C)C1 [Compound I-30]	
100 to 1000 nM	C=CC(=O)N1CCN(c2c(C#N)c(=O)n(-c3ccccc3C(C)C)c3cc(-c4ccn(C)c(=O)c4)c(Cl)cc23)[C@@H](C)C1 [Compound I-68]	
100 to 1000 nM	C=CC(=O)N1CCN(c2c(C#N)c(=O)n(-c3ccccc3C(C)C)c3cc(-c4cnn(CCO)c4)c(Cl)cc23)[C@@H](C)C1 [Compound I-58]	
100 to 1000 nM	C=CC(=O)N1CCN(c2c(C#N)c(=O)n(-c3ccccc3C(C)C)c3cc(-c4cc(O)ccc4F)c(Cl)cc23)[C@@H](C)C1 [Compound I-73]	
100 to 1000 nM	C=CC(=O)N1CCN(c2c(C#N)c(=O)n(-c3ccccc3C(C)C)c3cc(-c4ccccc4C4CC4)c(Cl)cc23)[C@@H](C)C1 [Compound I-75]	
100 to 1000 nM	C=CC(=O)N1CCN(c2c(C#N)c(=O)n(-c3ccccc3C(C)C)c3cc(-c4ccc(Cl)c(Cl)c4C)c(Cl)cc23)[C@@H](C)C1 [Compound I-29]	
	C=CC(=O)N1CCN(c2c(C#N)c(=O)n(-c3ccccc3C(C)C)c3cc(-c4c(C)ccc5[nH]ncc45)c(Cl)cc23)[C@H](C)C1 (single isomer, unassigned) [Compound I-3-1]	IC50 (numeric values): 1980 nM
	C=CC(=O)N1CCN(c2c(C#N)c(=O)n(-c3c(C)ccnc3C(C)C)c3cc(-c4c(OC)ccc(Cl)c4F)c(Cl)cc23)[C@@H](C)C1 [Compound I-84-2]	IC50 (class symbols): 100 to 1000 nM
100 to 1000 nM	C=CC(=O)N1CCN(c2c(C#N)c(=O)n(-c3ccccc3C(C)C)c3cc(-c4ccc(N)nc4)c(Cl)cc23)[C@@H](C)C1 [Compound I-64]	
< 100 nM	C=CC(=O)N1CCN(c2c(C#N)c(=O)n(-c3c(C)ccnc3C(C)C)c3cc(-c4c(OC)ccc(Cl)c4F)c(Cl)cc23)[C@@H](C)C1 [Compound I-84-1]	
100 to 1000 nM	C=CC(=O)N1CCN(c2c(C#N)c(=O)n(-c3ccccc3C(C)C)c3cc(-c4cccc(F)c4)c(Cl)cc23)[C@@H](C)C1 [Compound I-14]	
< 100 nM	C=CC(=O)N1CCN(c2c(C#N)c(=O)n(-c3ccccc3C(C)C)c3cc(-c4c(OC)ccc5ccccc45)c(Cl)cc23)[C@@H](C)C1 [Compound I-31]	
